The assay has as its target T1, 11-beta-hydroxysteroid dehydrogenase 1 [23-292,A23S,F278E] (Homo sapiens, UniProt P28845, A23S/F278E).
T1 construct: 23-292
Kind of assay: Scintillation Proximity Assay (SPA). The settings on record: pH 6.5; 23 °C. Background: SPA uses beads or plates that emit light when radiolabelled molecules are held near them.

T1 sequence (P28845 as listed by the source A23S/F278E): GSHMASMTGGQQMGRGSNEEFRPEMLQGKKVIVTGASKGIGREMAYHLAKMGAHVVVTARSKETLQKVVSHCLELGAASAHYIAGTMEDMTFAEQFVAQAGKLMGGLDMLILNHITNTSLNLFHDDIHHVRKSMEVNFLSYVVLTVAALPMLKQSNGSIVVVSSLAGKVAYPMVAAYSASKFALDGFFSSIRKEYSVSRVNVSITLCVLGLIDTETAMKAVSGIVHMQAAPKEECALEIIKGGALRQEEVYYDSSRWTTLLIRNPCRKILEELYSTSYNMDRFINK
Experimental: 11beta-HSD1 microsomes isolated from HEK 293 cells over-expressing human 11beta-HSD1 were incubated with the substrate cortisone and cofactor NADPH at room temperature. The reactions were terminated with the addition of a nonspecific 11beta-HSD1 inhibitor (18beta-glycyrrhetinic acid). The product cortisol was quantified in an immuno-competition SPA wherein the [3H]-cortisol bound to anti-rabbit antibody Yitrium silicate SPA beads coated with polyclonal anti-cortisol antibody was competed by cortisol produced in the reaction, and the reaction mixture was read in a scintillation plate reader (TopCount). The amount of cortisol was determined from a cortisol standard curve.

As for `O=C(c1cncc(CS(=O)(=O)c2c(Cl)cccc2Cl)c1)N1CCOCC1` [pyridine amide, 26], the IC50 (in general, the concentration that inhibits the measured activity by half) is over 10 µM.

Source of the values: BindingDB's records for doi:10.1016/j.bmcl.2008.04.069 (Bristol-Myers Squibb, 2008).
